The test system of data set [1] is PAE cells.
Another data set concerns PAE. The data set can be described thus: Apoptosis in PAE. It is filed as cell-based, porcine.
Data set [2] has as its system PAE cells. The data set can be described thus: Growth dose response (IC50) in PAE. It counts as cell-based, porcine. Conditions: read-out: Growth IC50 (M) in PAE. The text has this: FIG. 6: Dose response curves were constructed for all the SMs of interest using PAE cells. Data were fitted to non-linear sigmoid curves using GraphPad Prism (GraphPad Software, Inc., La Jolla, Calif.).
Dose response curves were constructed for all the SM of interest using PAE cells. Data were fitted to non-linear sigmoid curves using GraphPad Prism (GraphPad software, Inc.).

The next data set relates to endothelial cells. The data set can be described thus: Primary screening: cell-based growth HTS and tube formation HTS (bioactivity class).
Another data set in a line: in vitro. Conditions: pig.
The test system of data set [3] is PAE cells. The data set can be described thus: Fluorescence-release cytotoxicity assay. Conditions: endothelial cells.
The subject of data set [4] is SK-ML-1 tumors. Nature of the data set: SK-ML-1 tumor xenograft. As to conditions: 100 μl of 10 μM IP, three times a week for four weeks.
Another data set addresses KDR(VEGFR2) (Homo sapiens, UniProt P35968). The data set can be described thus: SelectScreen kinase activity profiling, KDR(VEGFR2). As to conditions: VEGFR2 receptor. It is filed as biochemical.
In data set [5] the test system is SK-ML-1 tumors. As to conditions: positive control; cited from earlier work.
Another data set has as its system A549 tumors. Conditions: positive control; cited from earlier work.
The mark [6] stands for this setting: HTS at 1 μM final concentration.

The values that follow come from US9504729B2, “Antiangiogenic small molecules and methods of use” (The United States of America, as represented by the …, priority 2009, dated 2016).

Read-outs that look alike come from different tables or passages of the source.

Chain of KDR(VEGFR2) (P35968 20-1356): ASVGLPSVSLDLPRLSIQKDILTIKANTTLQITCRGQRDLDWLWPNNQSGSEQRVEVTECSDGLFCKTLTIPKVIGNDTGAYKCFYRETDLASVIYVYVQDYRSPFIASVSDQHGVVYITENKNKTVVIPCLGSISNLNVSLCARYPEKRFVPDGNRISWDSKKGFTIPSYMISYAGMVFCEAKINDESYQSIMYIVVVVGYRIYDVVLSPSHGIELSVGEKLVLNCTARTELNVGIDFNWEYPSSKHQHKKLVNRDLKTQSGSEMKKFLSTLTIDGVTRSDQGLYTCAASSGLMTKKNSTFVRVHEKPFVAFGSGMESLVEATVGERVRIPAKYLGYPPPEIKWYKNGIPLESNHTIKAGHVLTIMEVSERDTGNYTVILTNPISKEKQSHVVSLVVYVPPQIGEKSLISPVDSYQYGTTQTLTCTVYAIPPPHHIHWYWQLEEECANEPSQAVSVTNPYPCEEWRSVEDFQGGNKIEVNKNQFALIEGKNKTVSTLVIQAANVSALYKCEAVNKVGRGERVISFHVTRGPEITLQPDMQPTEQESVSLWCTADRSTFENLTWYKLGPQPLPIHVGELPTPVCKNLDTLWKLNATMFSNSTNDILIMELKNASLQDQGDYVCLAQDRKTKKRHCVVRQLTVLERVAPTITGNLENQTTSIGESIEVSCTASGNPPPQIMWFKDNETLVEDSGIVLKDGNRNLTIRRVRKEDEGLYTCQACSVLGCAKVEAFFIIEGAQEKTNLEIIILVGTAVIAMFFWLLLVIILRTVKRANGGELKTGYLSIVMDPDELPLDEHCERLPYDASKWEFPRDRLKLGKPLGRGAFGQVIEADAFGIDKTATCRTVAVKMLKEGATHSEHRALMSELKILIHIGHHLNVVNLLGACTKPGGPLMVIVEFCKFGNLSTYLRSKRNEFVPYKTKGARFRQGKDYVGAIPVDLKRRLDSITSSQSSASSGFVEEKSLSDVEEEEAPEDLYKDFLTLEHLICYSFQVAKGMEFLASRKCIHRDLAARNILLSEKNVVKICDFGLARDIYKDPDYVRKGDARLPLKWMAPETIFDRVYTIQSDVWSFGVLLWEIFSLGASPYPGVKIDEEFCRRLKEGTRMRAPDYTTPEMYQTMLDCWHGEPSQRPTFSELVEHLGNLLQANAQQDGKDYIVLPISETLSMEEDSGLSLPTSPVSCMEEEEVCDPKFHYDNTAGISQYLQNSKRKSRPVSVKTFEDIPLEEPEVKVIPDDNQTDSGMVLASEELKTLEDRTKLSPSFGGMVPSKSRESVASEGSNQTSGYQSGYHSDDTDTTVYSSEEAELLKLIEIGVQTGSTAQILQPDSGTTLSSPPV
Protocol for endothelial cells: All assays were performed in clear bottom black 96-well plates. The plates were always arranged to include a column for negative controls (column 1), a column for positive controls (column 12), and 10 columns for evaluation of 80 compounds. In order to increase stringency and avoid false positives in the HTS assays, all compounds were tested at a low final concentration of 1 μM.
In summary, 1,000 cells/well were seeded in the 96-well plates described above. Cells in columns 2-12 were seeded in 10% FBS and cells in column 1 (negative control) were seeded in 0% FBS. Small molecules (80 per plate) were added in columns 2-11 at a final concentration of 1 μM (both positive and negative controls were exposed to the same percentage of DMSO in wells containing test compounds). The fluorescence emitted by every well was measured spectrophotometrically (Infinite M200, TECAN®, Mannedorf, Switzerland) every 24 hours for 5-7 days.
In summary, 20,000 cells/well were seeded on top of 50 μl of pre-gelled GELTREX® gel matrix (Invitrogen, Carlsbad, Calif.). All cells were seeded in 10% FBS. […] Small molecules (80 per plate) were added to columns 2-11 at a final concentration of 1 μM (both positive and negative controls were exposed to the same percentage of DMSO in wells containing test compounds). Plates were incubated for 5-7 hours and automatically imaged with the help of an epifluorescence microscope (Axiovert® 200M, Zeiss) equipped with a motorized stage and AxioVision® (Zeiss) software.
For hit detection, a stringent threshold (sigma 3.5) was applied to avoid false positives.

For orientation: IC50 means the point on the concentration scale where inhibition reaches its midpoint. Regarding “2,5-dibromo-3,6-dimethylbenzene-1,4- diol; 2,5-dibromo-3,6- dimethylcyclohexa-2,5-diene-1,4-dione [Compound 72]”, the “Cytotoxicity (%)” value in the data set on PAE cells [1] turned out to be 13.88%. Moreover, the “Apoptosis PAE (RFU)” value in the data set on PAE is 1.368 RFU. The IC50 in the data set on PAE cells [2] came out at 1.39e-10 M. In the data set on endothelial cells, the Bioactivity worked out at 3.

As to `CC1(C)N=C(N)N=C(N)N1CCCCc1ccccc1.Cl` [Compound 11, 6,6-dimethyl-1-(4-phenylbutyl)-1,3,5-triazine-2,4-diamine hydrochloride], the cytotoxicity in the data set “in vitro” stood at 18.7%. Moreover, the “cytotoxicity (in words)” value in the data set with PAE cells [3] is recorded as “cytotoxic”. In addition, the IC50 in the data set on PAE cells [2] (Sus scrofa, PAE cells) is 2.37e-11 M.

`COc1ccc(CC2C(=O)NC(C)C(=O)N(C)C3Cc4ccc(cc4)Oc4cc(ccc4O)CC(C(=O)NC(C)C(=O)NC(C)C(=O)N2C)N(C)C3=O)cc1` (centres unmarked) [Compound 58, Deoxybouvardin or 24-hydroxy-10-(4-methoxybenzyl)-4,7,9,13,15,29-hexamethyl-22-oxa-3,6,9,12,15,29-hexaazatetracyclo-[14.12.2.2~18,21~.1~23,27~]tritriaconta-18,20,23(31),24,26,32-hexaene-2,5,8,11,14,30-hexone] had a cytotoxicity in “in vitro” of 11.2%. For the same compound, the “inhibition of tumor growth, SK-ML-1 xenograft” value (shortened to “inhibition of tumor growth”) with SK-ML-1 tumors [4] is “potencies similar to AVASTIN®”. In addition, the “type of inhibition (endothelial cell growth and/or tube formation)” value (from here on “type of inhibition”) with endothelial cells is on record as “tube formation”.

Regarding `COc1ccc(CC2C(=O)NC(C)C(=O)N(C)C3C(=O)N(C)C(Cc4ccc(O)c(c4)Oc4ccc(cc4)C3O)C(=O)NC(C)C(=O)NC(C)C(=O)N2C)cc1` (centres unmarked) [Compound 59, Bouvardin or 17,24-dihydroxy-10-(4-methoxybenzyl)-4,7,9,13,15,29-hexamethyl-22-oxa-3,6,9,12,15,29-hexaazatetracyclo-[14.12.2.2-18,21~.1~23,27~]tritriaconta-18,20,23(31),24,26,32-hexaene-2,5,8,11,14,30-hexone], the “Cytotoxicity (%)” value in the data set with PAE cells [1] is reported as 9.794%. Further, the “Apoptosis PAE (RFU)” value in the data set with PAE was 6.215 RFU. This compound also yielded a Bioactivity with endothelial cells of 2.

In turn, `COc1ccc(-c2csc3c2-n2cccc2C3=O)cc1` [Compound 63, 3-(4-methoxyphenyl)thieno[2,3-b]pyrrolizin-8-one] came in with a cytotoxicity in the data set “in vitro” of 7.48%. For the same compound, the “cytotoxicity (in words)” value in the data set with PAE cells [3] was “without cytotoxicity”. In the data set on PAE cells [2] (Sus scrofa, PAE cells), the IC50 turned out to be 1.55e-11 M. In addition, the “type of inhibition” value in the data set with endothelial cells (1 μM) was “inhibited both endothelial cell growth and tube formation”.

Take `O=[N+]([O-])c1ccc(S(=O)(=O)Cc2ccccc2)c([N+](=O)[O-])c1` [Compound 64, 1-benzylsulfonyl-2,4-dinitrobenzene]: the cytotoxicity in “in vitro” turned out to be 7.09%. Besides, the “cytotoxicity (in words)” value in the data set on PAE cells [1] is “without cytotoxicity”. The IC50 with PAE cells [2] (Sus scrofa, PAE cells) was found to be 2.79e-10 M. Moreover, the “type of inhibition” value is “inhibited both endothelial cell growth and tube formation” in the data set with endothelial cells (1 μM); “tube formation+growth” in the data set on endothelial cells (1 μM, listed as NSC 122657).

With `Cl.O=C1C(=Cc2ccccc2)C(NC2CCCCC2)c2ccccc21` (centres unmarked) [Compound 67, 2-benzylidene-3-(cyclohexylamino)-3H-inden-1-one chloride], the cytotoxicity in the data set “in vitro” came to 7.78%. Moreover, the “inhibition of tumor growth” value in the data set on SK-ML-1 tumors [4] is “potencies similar to AVASTIN®”. The “cytotoxicity (in words)” value in the data set on PAE cells [3] was “without cytotoxicity”. Moreover, in the data set on PAE cells [2] (Sus scrofa, PAE cells), the half-maximal inhibitory concentration (IC50) came out at 9.16e-11 M. Besides, the “type of inhibition” value was “inhibited both endothelial cell growth and tube formation” in the data set with endothelial cells (1 μM); “tube formation+growth” in the data set with endothelial cells (1 μM, listed as NSC 150117).

In the data set “in vitro”, `O=C(c1no[n+]([O-])c1C(=O)c1csc2ccccc12)c1csc2ccccc12` [Compound 68, [4-(1-benzothiophene-3-carbonyl)-2-oxido-1,2,5-oxadiazol-2-ium-3-yl]-(1-benzothiophen-3-yl)methanone] returned a cytotoxicity of 19.1%. Moreover, the “cytotoxicity (in words)” value in the data set on PAE cells [3] is given as “cytotoxic”. Moreover, in the data set with PAE cells [2] (Sus scrofa, PAE cells), the half-maximal inhibitory concentration (IC50) was determined as 1.4e-10 M.

As for `O=[As](O)(O)c1ccc(Cc2ccc([As](=O)(O)O)cc2)cc1` [Compound 69, [4-[(4-arsonophenyl)methyl]phenyl]arsonic acid], in “in vitro”, the cytotoxicity is 8.26%. In the data set with PAE cells [1], the “cytotoxicity (in words)” value is given as “without cytotoxicity”. In the data set with SK-ML-1 tumors [4], the “inhibition of tumor growth” value is “potencies similar to AVASTIN®”. On KDR(VEGFR2), the “RTK inhibitory activity (in words)” value is “showed RTK inhibitory activity”. In addition, the concentration for half-maximal inhibition (IC50) in the data set with PAE cells [2] (Sus scrofa, PAE) worked out at 3.84e-10 M. In addition, in the data set with endothelial cells, the “type of inhibition” value was “inhibited both endothelial cell growth and tube formation”.

In the case of “AVASTIN®: monoclonal antibody directed against an isoform of VEGF, marketed under the trade name Avastin®; known antiangiogenic drug, positive control”, the “inhibition of growth of SK-ML-1 (previously shown)” value with SK-ML-1 tumors [5] was “significantly inhibit”. In addition, the “inhibition of growth of A549 (previously shown)” value with A549 tumors is recorded as “significantly inhibit”.

Turning to “[benzylsulfanyl(sulfoniumylidene) methyl]-(1-pyridin-2- ylethylideneamino)azanide; chlorocopper [Compound 65]”, the “Apoptosis PAE (RFU)” value with PAE (PAE cells) came to 2.227 RFU. In the data set on PAE cells [2] (PAE cells), the IC50 was 1.09e-11 M. The compound also registered a Bioactivity in the data set on endothelial cells (setting [6]) of 3.

For “bromocopper; (dipyridin-2- ylmethylideneamino)- [methylsulfanyl(sulfoniumylidene) methyl]azanide [Compound 70]”, in the data set with PAE cells [1], the “Cytotoxicity (%)” value came to 38.53%. The “Apoptosis PAE (RFU)” value in the data set on PAE (PAE cells) was 1.021 RFU. For the same compound, in the data set with PAE cells [3], the “cytotoxicity (in words)” value is on record as “cytotoxic”. Besides, the 50% inhibitory concentration (IC50) in the data set on PAE cells [2] (PAE cells) was found to be 6.11e-12 M. This compound showed a Bioactivity in the data set on endothelial cells (setting [6]) of 3.

As to “zinc; 8-hydroxy-3,4,4a,5,6,7,8,8a- octahydro-2H-quinolin-1-ide-5-sulfonic acid; 5-sulfo-1,2-dihydroquinolin-8-olate [Compound 61]”, the “Cytotoxicity (%)” value in the data set on PAE cells [1] was 7.901%. For the same compound, the “Apoptosis PAE (RFU)” value in the data set with PAE was 1.841 RFU. In addition, in the data set with endothelial cells, the Bioactivity stood at 2.
